Results as given in US20260102422A1, “4'-HALOGEN CONTAINING NUCLEOTIDE AND NUCLEOSIDE THERAPEUTIC COMPOSITIONS AND USES RELATED THERETO” (priority 2019, published 2026).

Key:
[1] = tested on: RAW264.7 cells; test: Cytotoxicity (CC50) in RAW264.7 cells; assay type: cell-based; conditions: RAW 264.7, Mouse, Macrophage
[2] = tested on: H9c2 cells; test: Cytotoxicity (CC50) in H9c2 cells; assay type: cell-based; conditions: H9c2, Rat, Heart
[3] = tested on: MA-104 cells; test: Cytotoxicity (CC50) in MA-104 cells; assay type: cell-based; conditions: MA-104, Monkey, Kidney, n = 2
[4] = Cytotoxicity (CC50) in HeLa cells; assay type: cell-based; conditions: human, alongside antiviral assays
[5] = tested on: Mayaro; test: Mayaro antiviral assay; assay type: cell-based; conditions: strain BEAR 505411; Vero 76 cells
[6] = Guinea pig plasma PK, single dose; assay type: in vivo; conditions: Guinea pigs
[7] = tested on: EEEV; test: microbe, parasite or virus in culture; assay type: cell-based; conditions: Eastern equine encephalitis virus, Vero 76
[8] = tested on: HepG2/Gal* cells; test: Cytotoxicity (CC50) in HepG2/Gal* cells; assay type: cell-based; conditions: Human
[9] = tested on: Machupo; test: microbe, parasite or virus in culture; assay type: cell-based, Machupo virus; conditions: Mammarenavirus machupoense
[10] = tested on: BEAS-28/Gal* cells; test: Cytotoxicity (CC50) in BEAS-28/Gal* cells; assay type: cell-based; conditions: Human, Lung
[11] = tested on: BEAS-28 cells; test: Cytotoxicity (CC50) in BEAS-28 cells; assay type: cell-based; conditions: BEAS-28, Human, Lung
[12] = tested on: MDCK/Gal* cells; test: Cytotoxicity (CC50) in MDCK/Gal* cells; assay type: cell-based; conditions: Canine, Kidney
[13] = tested on: HG23 cells; test: Cytotoxicity (CC50) in HG23 cells; assay type: cell-based; conditions: HG23, Human
[14] = tested on: Lujo; test: microbe, parasite or virus in culture; assay type: cell-based, Lujo virus; conditions: Mammarenavirus lujoense
[15] = Cytotoxicity (CC50) in RD cells; assay type: cell-based, Human; conditions: human, RD cells, alongside antiviral assays
[16] = tested on: RD cells; test: Cytotoxicity (CC50) in RD cells; assay type: cell-based, Human; conditions: RD, Human, Muscle
[17] = Ferret plasma PK, single dose; assay type: in vivo; conditions: ferrets; for AUC(0-inf) / Cmax / Tmax / half-life: plasma
[18] = tested on: Poliovirus; test: microbe, parasite or virus in culture; assay type: cell-based; conditions: Enterovirus C, Vero 76
[19] = tested on: BHK-T7 cells; test: Cytotoxicity (CC50) in BHK-T7 cells; assay type: cell-based; conditions: BHK-T7, Hamster, Kidney
[20] = tested on: CEM cells; test: Cytotoxicity (CC50) in CEM cells; assay type: cell-based; conditions: Human, Lymphoid
[21] = tested on: Junin virus; test: microbe, parasite or virus in culture; assay type: cell-based; conditions: Mammarenavirus juninense
[22] = tested on: A549 cells; test: Cytotoxicity (CC50) in A549 cells; assay type: cell-based; conditions: A549, Human, Lung
[23] = tested on: Pichinde virus; assay type: cell-based
[24] = Mouse plasma PK, single dose; conditions: for AUC-INF/Dose / Cmax/Dose: CD-1 mice; for AUC(0-inf) / Cmax / half-life / Tmax: female, ICR (CD-1), mouse, plasma, po
[25] = tested on: MDCK cells; test: Cytotoxicity (CC50) in MDCK cells; assay type: cell-based; conditions: Canine, Kidney, n = 6
[26] = tested on: Enterovirus-68; test: Enterovirus-68 antiviral assay; assay type: cell-based; conditions: strain US/KY/14-18953; RD cells
[27] = tested on: Vero cells; conditions: green monkey
[28] = tested on: Huh-7 cells; test: Cytotoxicity (CC50) in Huh-7 cells; assay type: cell-based; conditions: Huh7, Human, Liver, n = 3
[29] = tested on: BxPC-3 cells; test: Cytotoxicity (CC50) in BxPC-3 cells; assay type: cell-based; conditions: BxPC-3, Human, Pancreas
[30] = tested on: Lassa fever virus; test: organism not typed; assay type: cell-based
[31] = tested on: Measles; test: Measles antiviral assay; assay type: cell-based, measles virus; conditions: Measles morbillivirus; strain CC; Vero 76 cells
[32] = tested on: A-204 cells; test: Cytotoxicity (CC50) in A-204 cells; assay type: cell-based; conditions: A204, Human, Muscle
[33] = tested on: IEC-6 cells; test: Cytotoxicity (CC50) in IEC-6 cells; assay type: cell-based; conditions: IEC-6, Rat, Small intestine
[34] = tested on: HBTECs; test: Cytotoxicity (CC50) in HBTECs; assay type: cell-based; conditions: Human, Respiratory Tract
[35] = tested on: SARS; test: microbe, parasite or virus in culture; assay type: cell-based, SARS coronavirus; conditions: Severe acute respiratory syndrome coronavirus, Vero 76
[36] = tested on: SARS-CoV-2; test: microbe, parasite or virus in culture; assay type: cell-based; conditions: Severe acute respiratory syndrome coronavirus 2, Calu-3
[37] = tested on: HCoV-beta OC43; test: HCoV-beta OC43 antiviral assay; assay type: cell-based; conditions: Betacoronavirus 1; strain OC43; RD cells
[38] = tested on: MERS; test: microbe, parasite or virus in culture; assay type: cell-based, Middle East Respiratory Syndrome coronavirus
[39] = in vitro; conditions: human
[40] = tested on: HCoV-alpha 229E; test: HCoV-alpha 229E antiviral assay; assay type: cell-based, HCoV-229E; conditions: Human coronavirus 229E; strain 229E; Huh-7 cells
[41] = guinea pig, 50 mg/kg PO, plasma

## O=c1ccn([C@@H]2O[C@](F)(CO)[C@@H](O)[C@H]2O)c(=O)[nH]1 [EIDD-02749, 1-[(2R, 3R, 4S, 5S)-5-fluoro-3,4-dihydroxy-5-(hydroxymethyl)tetrahydrofuran-2-yl]pyrimidine-2,4-dione]
[1]
  CC: >100 µM
[2]
  CC: >400 µM
[3]
  CC: >380 µM
[4]
  CC50: 77000 nM
[5]
  EC50: 2810 nM
  EC90: 9500 nM
[6]; 5 mg/kg IV
  AUC0->∞/Dose: 5639.4 ± 234.2 h · kg · nmol/mL · mmol
  Cmax/Dose: 7525.0 ± 6050.9 kg · nmol/mL · mmol
[6]; 5 mg/kg PO
  AUC0->∞/Dose: 4869.4 ± 841.9 h · kg · nmol/mL · mmol
  Cmax/Dose: 1054.5 ± 118.8 kg · nmol/mL · mmol
  VD: 13.0 ± 1.6 L/kg
[6]; 50 mg/kg PO
  AUC0->∞/Dose: 2923.1 ± 209.6 h · kg · nmol/mL · mmol
  Cmax/Dose: 453.0 ± 51.2 kg · nmol/mL · mmol
  VD: 14.9 ± 1.9 L/kg
[6]; guinea pig, plasma, 5 mg/kg IV
  clearance: 3 mL/min/kg
[6]; guinea pig, 5 mg/kg IV, plasma
  AUC(0-inf): 108 ± 4.5 µM·h
  Cmax: 144 ± 115 µM
  Tmax: 0.083 h
  half-life: 9.3 ± 1.3 h
[6]; guinea pig, 5 mg/kg PO, plasma
  AUC(0-inf): 92.9 ± 16.1 µM·h
  Cmax: 20.1 ± 2.3 µM
  Tmax: 1.3 ± 0.5 h
  half-life: 20.1 ± 2.3 h
[6]; [41]
  AUC(0-inf): 558 ± 39.9 µM·h
  Cmax: 86.4 ± 9.8 µM
  Tmax: 1.8 ± 0.5 h
  half-life: 86.4 ± 9.8 h
[7]
  EC90: 1790 nM
[8]
  CC: >400 µM
[9]; HeLa
  EC50: 70 nM
[9]; Huh-7
  EC50: 310 nM
[9]; Vero C1008
  EC50: 1490 nM
[10]
  CC: 250 µM
[11]
  CC: >500 µM
[12]
  CC: 444 µM
[13]
  CC: 100 µM
[14]; HeLa
  EC50: 70 nM
[14]; Huh-7
  EC50: 1320 nM
[14]; Vero C1008
  EC50: 830 nM
[15]
  CC50: 228000 nM
[16]
  CC: >380 µM
[17]; 15 mg/kg PO
  AUC-INF/Dose: 2691.2 ± 483.7 h*kg*nmol/mL/mmol
  Cmax/Dose: 608.2 ± 114.0 kg*nmol/mL/mmol
  AUC(0-inf): 154 ± 27.6 µM·h
  Cmax: 34.8 ± 6.5 µM
  Tmax: 1 h
  half-life: 5.97 ± 0.35 h
[17]; 50 mg/kg PO
  AUC-INF/Dose: 2166.1 ± 409.8 h*kg*nmol/mL/mmol
  Cmax/Dose: 332.0 ± 57.5 kg*nmol/mL/mmol
  AUC(0-inf): 413 ± 78.1 µM·h
  Cmax: 63.3 ± 10.9 µM
  Tmax: 2.3 ± 1.5 h
  half-life: 4.3 ± 0.8 h
[18]
  EC90: 3800 nM
[19]
  CC: >500 µM
[20]
  CC: 107 µM
[21]; HeLa
  EC50: 20 nM
[21]; Huh-7
  EC50: 250 nM
[21]; Vero C1008
  EC50: 80 nM
[22]
  CC: >400 µM
[23]
  EC90: 320 nM
[24]; 10 mg/kg IP
  AUC-INF/Dose: 514.5 h*kg*nmol/mL/mmol
  Cmax/Dose: 202.1 kg*nmol/mL/mmol
[24]; 50 mg/kg PO
  AUC-INF/Dose: 1215.0 h*kg*nmol/mL/mmol
  Cmax/Dose: 184.3 kg*nmol/mL/mmol
[24]; 150 mg/kg PO
  AUC-INF/Dose: 685.8 h*kg*nmol/mL/mmol
  Cmax/Dose: 76.2 kg*nmol/mL/mmol
[24]; 500 mg/kg PO
  Cmax/Dose: 39.9 kg*nmol/mL/mmol
[24]; 1.5 mg/kg
  AUC(0-inf): 6.58 µM·h
  Cmax: 1.2 µM
  half-life: 17.9 h
[24]; 5 mg/kg
  AUC(0-inf): 28.6 µM·h
  Cmax: 7.1 µM
  half-life: 15.2 h
[24]; 15 mg/kg
  AUC(0-inf): 86.9 µM·h
  Cmax: 23.3 µM
  half-life: 20.3 h
[24]; 50 mg/kg
  half-life: 8.28 h
[24]; 150 mg/kg
  Tmax: 1 h
  half-life: 8.46 h
[24]; 500 mg/kg
  Tmax: 1 h
[25]
  CC: >380 µM
[26]
  EC90: 1060 nM
[27]
  CC: >380 µM
[28]
  CC: >400 µM
[29]
  CC: >400 µM
[30]; HeLa
  EC50: 450 nM
[30]; Huh-7
  EC50: 900 nM
[30]; Vero C1008
  EC50: 360 nM
[31]
  EC50: 1060 nM
[32]
  CC: >400 µM
[33]
  CC: >400 µM
[34]
  CC: >500 µM

## O=c1ccn([C@@H]2O[C@](F)(CO)[C@@H](O)[C@H]2O)c(=O)[nH]1 [EIDD-2749]
[35]
  EC50: 14100 nM
[36]
  EC50: 1900 nM
[37]
  EC50: 1060 nM
  EC90: 2850 nM
[38]
  EC50: 5700 nM
[38]; Middle East respiratory syndrome-related coronavirus, Vero 76
  EC90: 9500 nM
[39]
  CC50: > 50000 nM
[40]
  EC50: 1670 nM
  EC90: 9500 nM
